Source: US4593090A, “Novel nitrosourea compounds, method for preparing same, and pharmaceutical composition containing same” (Gogo Kimura, priority 1981, dated 1986)
Like-named read-outs stand apart in the source and are kept apart here.

Assays:
Ehrlich acites carcinoma = experiment: Growth-inhibiting effect against Ehrlich acites carcinoma; format: in vivo, male mice; details: Mus musculus, Ehrlich, 120 h, 5 days; for response vs control in vivo at 25 mg/kg: 25 mg/kg/day ip; for response vs control in vivo at 100 mg/kg: 100 mg/kg/day ip; for response vs control in vivo at 50 mg/kg: 50 mg/kg/day ip; for response vs control in vivo at 200 mg/kg: 200 mg/kg/day ip
Method: Ehrlich acites carcinoma (1×10^7 cells) was implantated into the abdominal cavities of a 6-membered group of male mice. Test compounds (solutions or suspensions in 1% Nikohl HCO-60) were each intraperioneally administered once a day 5 successive days to the mice 24 hrs. after the implantation. Total packed cell volumes [TPCV, namely, total packed volumes of Acites carcinoma] were determined 7 days after the implantation to calculate growth ratio of tumor [T/C%; T: packed volume of Acites carcinoma in treated groups, C: packed volume of Acites carcinoma in an untreated group]. Acitivity is represented by - when T/C% is 100-66, by + when T/C% 65-41, by ++ when T/C% 40-11, and by +++ when T/C% 10-0.

Leukemia L1210 = experiment: Activity against Leukemia L1210, intraperitoneal, increase in life span of mice; format: in vivo, female mice (BDF1 family); details: for ED (maximum ILS) / ED30: Mus musculus, L1210, ip, ip once a day for 5 successive days; for ED (maximum ILS): daily dosage giving maximum increase of life span, read-out: O.D. (optimum dosage); for ED30: daily dosage increasing average survival days by 30%, read-out: ILS30; for Survivors after 60 days / Max. ILS % / Therapeutic ratio TR: ip; for Survivors after 60 days: 6-membered group; for Max. ILS %: 60-day observation, versus control; for Therapeutic ratio TR: O.D./ILS30
In short: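 Female BDF1 mice (20 to 23 g, 6 per group) implanted ip with 1×10^5 L1210 cells; test compound given ip or orally once daily for 5 days starting 24 h later. ILS% from mean survival days vs untreated controls over 60 days; T.R. = O.D./ILS30.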

[1] = Acute toxicity (LD50, Behrens-Karber method); format: in vivo, ICR mice; details: mouse, in vivo, ip, mortality during 30 days
Method: Test compounds, dissolved or suspended in 0.5% aqueous CMC, were each intraperitoneally administered to ICR mice in a dose of 0.1 ml per 10 g body weight. LD50 (mg/kg) value of each test compound was calculated from the mortality of mice during 30 days by the Behrens-Karber method.

Compound | response vs control in vivo at 25 mg/kg (Ehrlich acites carcinoma; read-out: Activity) | response vs control in vivo at 25 mg/kg (Ehrlich acites carcinoma; read-out: T/C %) | response vs control in vivo at 100 mg/kg (Ehrlich acites carcinoma; read-out: Activity) | response vs control in vivo at 100 mg/kg (Ehrlich acites carcinoma; read-out: T/C %) | ED (maximum ILS) (Leukemia L1210) | ED30 (Leukemia L1210) | Survivors after 60 days (Leukemia L1210) | Max. ILS % (Leukemia L1210) | Therapeutic ratio TR (Leukemia L1210) | LD50 at 720 h [1] | response vs control in vivo at 50 mg/kg (Ehrlich acites carcinoma; read-out: Activity) | response vs control in vivo at 50 mg/kg (Ehrlich acites carcinoma; read-out: T/C %) | response vs control in vivo at 200 mg/kg (Ehrlich acites carcinoma; read-out: Activity) | response vs control in vivo at 200 mg/kg (Ehrlich acites carcinoma; read-out: T/C %)
COC(C)CN(C[C@H]1O[C@H](OC2CCCCC2)[C@H](O)[C@@H](O)[C@@H]1O)C(=O)N(CCCl)N=O (stereo partly drawn) [Compound 41, 3-(2-methoxy-n-propyl)-3-(cyclohexyl α-D-glucopyranose-6-yl)-1-(2-chloroethyl)-1-nitrosourea] | 0 to 10% | 0% | 0 to 10% | 0% | 180 mg/kg | 2.72 mg/kg | 6/6 | > 700% | 66.2 | 580 mg/kg |  |  |  | 
CCC(C)N(C[C@H]1O[C@H](OCCOCOC)[C@H](O)[C@@H](O)[C@H]1O)C(=O)N(CCCl)N=O (some centres unmarked) [Compound 115] | 0 to 10% | 0% | 0 to 10% | 0% | 200 mg/kg | 3.2 mg/kg | 6/6 | > 700% | 62.5 | 600 mg/kg |  |  |  | 
CCCCN(C[C@H]1O[C@H](OCCCOC)[C@H](O)[C@@H](O)[C@@H]1O)C(=O)N(CCCl)N=O [Compound 30, 3-n-butyl-3-(3-methoxy-n-propyl-α-D-glucopyranose-6-yl)-1-(2-chloroethyl)-1-nitrosourea] | 0 to 10% | 0% | 0 to 10% | 0% | 150 mg/kg | 2.61 mg/kg | 6/6 | > 700% | 57.5 | 450 mg/kg |  |  |  | 
CCCCOC1OC(CO)C(O)C(N(CCCOC)C(=O)N(CCCl)N=O)C1O [Compound 82, 3-(3-methoxy-n-propyl)-3-(n-butyl α-D-glucopyranose-3-yl)-1-(2-chloroethyl)-1-nitrosourea] | 0 to 10% | 0% | 0 to 10% | 0% | 200 mg/kg | 5.5 mg/kg | 3/6 | > 345% | 30.4 | 655 mg/kg |  |  |  | 
CCCCO[C@H]1O[C@H](CN(C)C(=O)N(CCCl)N=O)[C@@H](O)[C@H](O)[C@H]1O [Compound 3, 3-methyl-3-(n-butylα-D-glucopyranose-6-yl)-1-(2-chloroethyl)-1-nitrosourea] |  |  |  |  | 90 mg/kg | 2.7 mg/kg | 6/6 | > 700% | 33.3 | 260 mg/kg | 11 to 40% | 22.4% | 0 to 10% | 0%
CCC(C)O[C@H]1O[C@H](CN(C(=O)N(CCCl)N=O)C(C)CO)[C@@H](O)[C@H](O)[C@H]1O (stereo partly drawn) [Compound 20, 3-(2-hydroxy-1-methylethyl)-3-(sec-butyl α-D-glucopyranose-6-yl)-1-(2-chloroethyl)-1-nitrosourea] | 0 to 10% | 0% | 0 to 10% | 0% | 170 mg/kg | 3.92 mg/kg | 4/6 | > 430% | 43.4 | 560 mg/kg |  |  |  | 
CC(C)(C)N(C[C@H]1O[C@H](OCC2CCCO2)[C@H](O)[C@@H](O)[C@@H]1O)C(=O)N(CCCl)N=O (stereo partly drawn) [Compound 193, 3-tert-butyl-3-(tetrahydrofurfuryl α-D-glucopyranose-6-yl)-1-(2-chloroethyl)-1-nitrosourea] | 0 to 10% | 0% | 0 to 10% | 0% | 160 mg/kg | 2.52 mg/kg | 6/6 | > 700% | 63.4 | 550 mg/kg |  |  |  | 
COCC(C)N(C(=O)N(CCCl)N=O)[C@H]1[C@@H](OCC(C)C)O[C@H](CO)[C@H](O)[C@@H]1O (stereo partly drawn) [Compound 124, 3-(1-methyl-2-methoxyethyl)-3-(isobutyl α-D-galactopyranose-2-yl)-1-(2-chloroethyl)-1-nitrosourea] | 0 to 10% | 0% | 0 to 10% | 0% | 210 mg/kg | 5.3 mg/kg | 3/6 | > 360% | 39.6 | 745 mg/kg |  |  |  | 
CCOCCN(C[C@H]1O[C@H](OCC(C)C)[C@H](O)[C@@H](O)[C@H]1O)C(=O)N(CCCl)N=O [Compound 109, 3-(2-ethoxyethyl)-3-(isobutyl α-D-galactopyranose-6-yl)-1-(2-chloroethyl)-1-nitrosourea] | 0 to 10% | 0% | 0 to 10% | 0% | 200 mg/kg | 3.74 mg/kg | 4/6 | > 430% | 53.5 | 655 mg/kg |  |  |  | 
CCOCCN(C[C@H]1O[C@H](OC2CCCCC2)[C@H](O)[C@@H](O)[C@@H]1O)C(=O)N(CCCl)N=O [Compound 40, 3-(2-ethoxyethyl)-3-(cyclohexyl α-D-glucopyranose-6-yl)-1-(2-chloroethyl)-1-nitrosourea] | 0 to 10% | 0% | 0 to 10% | 0% | 170 mg/kg | 2.66 mg/kg | 6/6 | > 700% | 63.9 | 545 mg/kg |  |  |  | 
CCCCOC1OC(CO)C(O)C(O)C1N(CC1CCCO1)C(=O)N(CCCl)N=O [Compound 63, 3-tetrahydrofurfuryl-3-(n-butyl α-D-glucopyranose-2-yl)-1-(2-chloroethyl)-1-nitrosourea] | 0 to 10% | 0% | 0 to 10% | 0% | 190 mg/kg | 5.31 mg/kg | 3/6 | > 350% | 35.8 | 595 mg/kg |  |  |  | 
CCCCO[C@H]1O[C@H](CN(C)C(=O)N(CCCl)N=O)[C@H](O)[C@H](O)[C@H]1O [Compound 105, 3-methyl-3-(n-butyl α-D-galactopyranose-6-yl)-1-(2-chloroethyl)-1-nitrosourea] |  |  |  |  | 130 mg/kg | 3.59 mg/kg | 3/6 | > 320% | 36.2 | 320 mg/kg | 0 to 10% | 5.7% | 0 to 10% | 0%
O=NN(CCCl)C(=O)N(CC1CCCO1)C[C@H]1O[C@H](OC2CCCCC2)[C@H](O)[C@@H](O)[C@@H]1O (stereo partly drawn) [Compound 50, 3-tetrahydrofurfuryl-3-(cyclohexyl α-D-glucopyranose-6-yl)-1-(2-chloroethyl)-1-nitrosourea] | 0 to 10% | 0% | 0 to 10% | 0% | 150 mg/kg | 2.31 mg/kg | 6/6 | > 700% | 64.9 | 450 mg/kg |  |  |  | 
COCCCO[C@H]1O[C@H](CN(C(=O)N(CCCl)N=O)C(C)(C)C)[C@@H](O)[C@H](O)[C@H]1O [Compound 179, 3-tert-butyl-3-(3-methoxy-n-propyl α-D-glucopyranose-6-yl)-1-(2-chloroethyl)-1-nitrosourea] | 0 to 10% | 0% | 0 to 10% | 0% | 180 mg/kg | 2.79 mg/kg | 6/6 | > 700% | 64.4 | 560 mg/kg |  |  |  | 
